Results as given in US20050191308A1 (priority 1999, published 2005).

How the values were obtained:
ESAT-6 = settings: in vivo
blood cells = format: in vivo, C57BL/6 mice; settings: 10 μg ESAT-6/dose, three times

CCCCCCCCCCCCCCCCCC[N+](C)(C)CCCCCCCCCCCCCCCCCC.[Br-] [DDA]
ESAT-6 specific IgG (end-point titer), Expt. I (ESAT-6): <3 | ESAT-6 specific IgG (end-point titer), Expt. II (ESAT-6): <3 | ESAT-6 specific recall response, IFN-γ, Expt. I (blood cells): <50 pg/mL
